In ChEMBL document CHEMBL1275254 (2010):

Test system: Burkholderia pseudomallei
Test: Antimicrobial activity against Burkholderia pseudomallei Bp227 harboring deleted (bpeAB-oprA)::FRT gene after 24 hrs by broth microdilution method
Type: functional

GENTAMICIN
MIC: 256 µg/mL
